# Results published in paper PMC5320518, “Novel Liver-targeted conjugates of Glycogen Phosphorylase Inhibitor PSN-357 for the Treatment of Diabetes: Design, Synthesis, Pharmacokinetic and Pharmacological Evaluations” (Scientific Reports, 2017).
# Where “and” joins values, the source holds several entries; their conditions need not be identical. Equal values may be shown once. Read-outs that look alike come from different tables or passages of the source.
# Legend:
# isolated rat hepatocytes = assay: Glycogenolysis inhibition in isolated rat hepatocytes; type: cell-based; conditions: mean ± S.D. of three, NI means no inhibition
# Text: (§1) To evaluate the effects of all compounds in cells, the glycogenolysis assays were established in both rat and human liver cells based on the published method. […] The inhibitory activities of the derivatives of PSN-357 (e.g. 25–28) were also explored. It is not surprising that the derivatives still retained micromolar inhibitory activities. Introduction of steric bulks to the hydroxyl group (e.g. 33, 40, 42, 48) led to a complete loss of activity. Data analysis indicated no clear SAR for the substitutents in the cell-based assays.
# (§2) The inhibition of hepatic glycogenolysis was monitored by the measurement of liver glycogen, which was done quantitatively by the anthrone reagent (Sigma) colorimetric method based on the published method. Isolated rat hepatocytes or HepG2 cells (Sigma) were treated with the test compound or DMSO solvent (final concentration, 0.10%), followed by 60-min incubation with 0.3 nM glucagon (GGN). Assays were terminated by centrifugation, and cells were digested with 30% KOH followed by glycogen determination. The IC50 values were estimated by fitting the inhibition data to a dose-dependent curve using a logistic derivative equation.
# [1] = Stability in simulated gastric fluid (SGF); type: in vitro ADME; conditions: SGF pH 1.21 with pepsin, 2 μM, 37 °C; for stability in SGF (in words): 24 h incubation
# Protocol: (§3) All the conjugates were tested for their chemical and metabolic stability in multiple assays, including simulated gastric fluid (SGF), simulated interstinal fluid (SIF), mouse plasma, and mouse liver microsome (MLM).
# (§4) For the stability in SGF (Fig. 8) and SIF (Fig. 9), the conjugates could be divided into three groups: (1) stable conjugates 2, 6 and 9. […] The two conjugates were degraded within 6 h and 1 h in SGF and SIF, respectively, with alomost no conjugates at the end of the 24 h incubation in both SGF and SIF; (3) complicated conjugates 3, 4, 5 and 8.
# (§5) The simulated gastrointestinal fluids were prepared according to USP specifications. For SGF, NaCl (0.12 g) and pepsin (0.18 g, from porcine stomach mucosa) was dissolved in HCl (0.42 mL) and sufficient H2O was added to make 60 mL. The pH of the test solution was determined as 1.21 by pH meter. For the SIF, KH2PO4 (0.408 g) and pancreatin (0.6 g, from porcine pancreas) was dissolved in H2O (60 mL). The pH of the test solution was determined as 6.79 by pH meter. Each test compound was dissolved in DMSO and diluted to a final concentration of 2 μM in SIF and SGF. The final concentrations of DMSO and CH3CN in the incubation mixture were 0.2% and 0.45%. Aliquots of these solutions were pipetted into glass tubes, and placed in a 37 °C shaking water bath. Test samples at corresponding time point (1, 2, 6, 24 h) were removed at the end of incubation time and immediately mixed with 800 μL of cold acetonitrile containing 500 ng/mL tolbutamide (internal standard). Samples were subjected to centrifuge at 4000 rpm, 4 °C for 20 min. Aliquots 60 μL of supernatant was combined with 120 μL water for LC-MS/MS analysis.
# HepG2 cells = assay: Glycogenolysis inhibition in HepG2 cells; type: cell-based, human; conditions: HepG2 cells, 60-min incubation with 0.3 nM glucagon, mean ± S.D. of three, NI means no inhibition, read-out: IC50 (glycogenolysis inhibition, HepG2 cells)
# Text: as §1, §2
# [2] = Stability in mouse liver microsomes (MLM); type: in vitro ADME; conditions: for CLint scaled at 10 μM / half-life at 10 μM / microsomal CLint at 10 μM: C57BL/6, pH 7.4, n = 3
# Protocol: Additionally, the compounds’ stability in microsome were evaluated by measuring the rate of compounds consumpation in MLM and the results are shown in Table 3.
# The microsomal pellet was suspended in potassium phosphate buffer (100 mM, pH 7.4), 10 μM test compound or positive control (diclofenac) was added. Liver microsomes from C57BL/6 mice (BD Gentest) were pooled. The mixture of microsome solution and compound was incubated at 37 °C for about 10 min in the presence of a NADPH-regenerating system, consisting of 0.02 M DL-isocitric acid (trisodium salt), 0.1 mg/mL isocitrate dehydrogenase and 1 mM NADPH. The addition of ice-cold CH3CN (including 100 ng/mL tolbutamide as internal standard) terminated the reaction. The mixture was vortexed for approx (30 s), centrifuged (20 min, 4000 rpm) and the supernatant was collected and analysed by LC-MS/MS method.
# [3] = Stability in simulated intestinal fluid (SIF); type: in vitro ADME; conditions: for time within which degraded in SIF: SIF pH 6.79 with pancreatin, 2 μM, 37 °C
# Protocol: as §3, §4, §5
# [4] = biological target: T1, rabbit muscle GPa (RMGPa) (Oryctolagus cuniculus, UniProt P00489); assay: RMGPa inhibition assay (phosphate release from glucose-1-phosphate); type: biochemical; conditions: mean ± S.D. of three determinations; NI means no inhibition
# T1 sequence (P00489 2-843 limits assumed): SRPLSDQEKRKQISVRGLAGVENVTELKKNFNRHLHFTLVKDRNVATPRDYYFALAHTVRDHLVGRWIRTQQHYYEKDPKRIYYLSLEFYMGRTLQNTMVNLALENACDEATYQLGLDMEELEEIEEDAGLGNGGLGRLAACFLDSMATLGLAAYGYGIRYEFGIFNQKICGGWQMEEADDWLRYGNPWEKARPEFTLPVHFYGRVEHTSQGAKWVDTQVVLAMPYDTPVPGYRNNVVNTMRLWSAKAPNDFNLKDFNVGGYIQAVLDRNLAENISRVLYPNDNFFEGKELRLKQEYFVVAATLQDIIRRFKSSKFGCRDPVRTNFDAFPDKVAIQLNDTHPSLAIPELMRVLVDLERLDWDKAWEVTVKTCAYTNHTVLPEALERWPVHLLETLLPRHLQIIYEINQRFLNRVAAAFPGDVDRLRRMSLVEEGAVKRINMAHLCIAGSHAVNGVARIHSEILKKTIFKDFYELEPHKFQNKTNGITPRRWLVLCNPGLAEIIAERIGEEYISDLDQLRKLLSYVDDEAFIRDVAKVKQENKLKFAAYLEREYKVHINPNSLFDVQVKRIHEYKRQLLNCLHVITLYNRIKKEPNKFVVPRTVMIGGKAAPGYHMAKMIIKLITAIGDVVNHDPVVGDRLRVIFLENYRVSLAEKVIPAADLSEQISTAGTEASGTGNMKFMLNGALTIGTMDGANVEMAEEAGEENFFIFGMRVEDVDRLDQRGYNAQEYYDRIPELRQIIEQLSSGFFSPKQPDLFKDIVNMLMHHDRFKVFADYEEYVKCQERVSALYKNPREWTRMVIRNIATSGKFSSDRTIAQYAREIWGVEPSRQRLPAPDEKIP
# Protocol: All the compounds were evaluated for their inhibitory activity against rabbit muscle GPa (RMGPa). The activity of RMGPa was measured through detecting the release of phosphate from glucose-1-phosphate in the direction of glycogen synthesis. CP-91149, a well-known allosteric GP inhibitor, which shares the same binding site with PSN-357, was used as the positive control and the results are summarized in Table 1[21]. […] This remarkable loss of activity was probably due to the direct steric interference by such bulky substituent of cholic acid group. […] The results is consistent with the SARs of PSN-357 that the hydroxyl of piperidine is not an essential group for the GP inhibitory activity that could be modified slightly.
# The inhibitory activity of the test compounds against rabbit muscle glycogen phosphorylase a (GPa) was monitored using microplate reader (BIO-RAD) based on the published method. In brief, GPa activity was measured in the direction of glycogen synthesis by the release of phosphate from glucose-1-phosphate. Each test compound was dissolved in DMSO and diluted at different concentrations for IC50 determination. The enzyme was added into 100 μL of buffer containing 50 mM Hepes (pH = 7.2), 100 mM KCl, 2.5 mM MgCl2, 0.5 mM glucose-1-phosphate, 1 mg/mL glycogen and the test compound in 96-well microplates (Costar). After the addition of 150 μL of 1 M HCl containing 10 mg/mL ammonium molybdate and 0.38 mg/mL malachite green, reactions were run at 22 °C for 25 min, and then the phosphate absorbance was measured at 655 nm. The IC50 values were estimated by fitting the inhibition data to a dose-dependent curve using a logistic derivative equation.
# skeletal muscle function = tested on: skeletal muscle function; parameters: method as in PMID 16046314, PMID 16731853; conditions: prolonged (60 min) muscle contraction, perfused rat hindlimb model; cited from earlier work
# [5] = Stability in mouse plasma; type: in vitro ADME; conditions: 2 μM, 37 °C, 120-min test
# Protocol: Frozen plasma from male C57 BL/6 mice was incubated for 5 min at 37 °C before the addition of the test compound. Then prepared 2 μM incubation sample, and aliquots of the incubation mixtures (100 μL) were taken at predetermined time points (10, 30, 60, 120 min) at 37 °C. After incubation, the mixtures was added 400 μL of 50% ACN/50% MeOH containing internal standard (IS, 200 ng/mL Tolbutamide and 20 ng/mL Buspirone) to each sample tube and then centrifuged at 13000 rpm for 8 min. Blank incubations in the absence of the test compound were also performed. The analyses of test compounds were performed by LC-MS/MS analysis.
# [6] = Rattus norvegicus, Hepatocyte, 1 h, read-out: IC50 (glycogenolysis inhibition, rat hepatocytes), isolated rat hepatocytes, 60-min incubation with 0.3 nM glucagon
Compound,IC50 (isolated rat hepatocytes; [6]) [µM],stability in SGF (in words) [1],"IC50 (HepG2 cells; Homo sapiens, HepG2, 1 h) [µM]",melting point [°C],CLint scaled at 10 μM [2] [mL/min/kg],half-life at 10 μM [2] [min],microsomal CLint at 10 μM [2] [µL/min/mg],fraction degraded during 24 h incubation in SIF [3],IC50 [4],greater muscle fatigue than the control group (skeletal muscle function) [%],degradation in mouse plasma [5],time within which degraded in SIF [3] [h],IC50 (RMGPa inhibition) [4],metabolic stability in MLM (in words) [2],time within which degraded in SGF [1] [h],"IC50 (isolated rat hepatocytes; read-out: IC50 (glycogenolysis inhibition, rat hepatocytes), isolated rat hepatocytes, 60-min incubation with 0.3 nM glucagon) [µM]",IC50 (HepG2 cells) [µM]
C[C@H](CCC(=O)N(C)CC(=O)OC1CCN(C(=O)[C@H](Cc2ccc(F)cc2)NC(=O)c2cc3cc(Cl)ncc3[nH]2)CC1)[C@H]1CC[C@H]2[C@@H]3[C@H](O)C[C@@H]4C[C@H](O)CC[C@]4(C)[C@H]3C[C@H](O)[C@]12C [Conjugate 2],845 ± 132,stable,172 ± 18.2,183 to 185,220,24.9,55.6,no more than 20%,26 ± 13.9 µM,,,,,,,,
CP316819,,,,,,,,,,35,,,,,,,
CC(C)[C@H](NC(=O)CC[C@@H](C)[C@H]1CC[C@H]2[C@@H]3[C@H](O)C[C@@H]4C[C@H](O)CC[C@]4(C)[C@H]3C[C@H](O)[C@]12C)C(=O)OC1CCN(C(=O)[C@H](Cc2ccc(F)cc2)NC(=O)c2cc3cc(Cl)ncc3[nH]2)CC1 [Conjugate 4],,relatively stable,,185 to 187,150,36.5,38,,,,approximately 4%,≤ 1,no activity,,,,
CC(CCC(=O)NC(Cc1ccccc1)C(=O)NC(CCCCN)C(=O)OC1CCN(C(=O)C(Cc2ccc(F)cc2)NC(=O)c2cc3cc(Cl)ncc3[nH]2)CC1)C1CCC2C3C(O)CC4CC(O)CCC4(C)C3CC(O)C12C (stereo not drawn) [Conjugate 8],64.5 ± 4.4,relatively stable,36.8 ± 4.14,,64.2,85.6,16.2,,10.7 ± 5.6 µM,,,≤ 1,,considerable metabolic stability,,,
C[C@H](CCC(=O)NCC(=O)OC1CCN(C(=O)[C@H](Cc2ccc(F)cc2)NC(=O)c2cc3cc(Cl)ncc3[nH]2)CC1)[C@H]1CC[C@H]2[C@@H]3[C@H](O)C[C@@H]4C[C@H](O)CC[C@]4(C)[C@H]3C[C@H](O)[C@]12C [Conjugate 1],41.1 ± 5.11,,203 ± 3.39,,172,31.9,43.4,,5.9 µM and 5.94 µM,,,≤ 1,,,≤ 6,,
C[C@H](CCC(=O)NCCNC(=O)c1ccc(/N=N/c2ccccc2CCC(=O)OC2CCN(C(=O)[C@H](Cc3ccc(F)cc3)NC(=O)c3cc4cc(Cl)ncc4[nH]3)CC2)cc1)[C@H]1CC[C@H]2[C@@H]3[C@H](O)C[C@@H]4C[C@H](O)CC[C@]4(C)[C@H]3C[C@H](O)[C@]12C [Conjugate 9],12.3,stable,6.4,172 to 174,60.2,91.2,15.2,no more than 20%,51.7 ± 4.1 µM,,,,,considerable metabolic stability,,12.3 ± 3.93,6.41 ± 1.25
C[C@H](CCC(=O)N[C@@H](CO)C(=O)OC1CCN(C(=O)[C@H](Cc2ccc(F)cc2)NC(=O)c2cc3cc(Cl)ncc3[nH]2)CC1)[C@H]1CC[C@H]2[C@@H]3[C@H](O)C[C@@H]4C[C@H](O)CC[C@]4(C)[C@H]3C[C@H](O)[C@]12C [Conjugate 5],,relatively stable,,175 to 177,135,40.8,34,,81.9 ± 14.4 µM,,,≤ 1,,,,,
